A short description of the data set: gradient 5% acetonitrile 3 min, to 50% in 2 min, to 85% in 15 min, held 3 min, 100 µL/min. The note with it: column: Zorbax Extend-C18 2.1 x 50 mm; eluents: water / acetonitrile, 0.1% formic acid. A digest of the protocol: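 Data were gathered over 3 months by HPLC coupled to a quadrupole time-of-flight mass spectrometer, operated in positive and negative ionization mode. Mixtures of ~100 pure standards ran on a Zorbax Extend-C18 column (2.1 × 50 mm, 1.8 μm) at 100 μL/min, with water and acetonitrile each containing 0.1% formic acid and dead and dwell volumes of 40 μL and 900 μL. Retention time was read from adduct peaks picked by computer and checked manually.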
For `CCN1C(=O)c2ccccc2Oc2ccc(C(=O)NCC(C)c3ccccc3)cc21` (stereo not given), the RP-LC retention time came to 985 s. Regarding `O=C(NCc1csc(-c2cccs2)n1)C1CCN(S(=O)(=O)c2ccc(Cl)s2)CC1`, the RP-LC retention time was determined as 957 s. For `CCCN1CCN(C(=O)CN2C(=O)C(C)(C)c3cc(C)ccc32)CC1` the value was 624 s. Then `O=C(CCNNC(=O)c1ccncc1)NCc1ccccc1`, with 636 s; and `O=C(NCc1ccco1)C1CCN(C(=O)c2ncn3c2COC(c2ccccc2)C3)CC1` (stereo not given), with 699 s. For `O=C(Nc1ccc(F)cc1F)N1CCC(N(C(=O)C2CC2)C2CCOCC2)CC1` the value was 719 s.

Compound `O=C(NCCc1c[nH]c2ccccc12)c1cccc(N2C(=O)CCS2(=O)=O)c1` gave an RP-LC retention time of 749 s.

Compound `Cc1ccc(N2C(=O)CN(S(=O)(=O)c3ccccc3)CC2(C)C(=O)NCc2ccc(F)cc2)cc1` (stereo not given) had an RP-LC retention time of 875 s. Then `Cc1ccc2nc(NC(=O)C3CCN(S(=O)(=O)c4ccc5[nH]c(=O)ccc5c4)CC3)sc2c1`, with 814 s; and `COc1ccc(N2CCN(C(=O)C3c4ccccc4CCN3C(=O)C3CC3)CC2)cc1` (stereo not given), with 811 s; and `CN(C)c1nc2cc(C(=O)N3CCCC3)sc2n1-c1ccccc1`, with 657 s. For `O=C(CN1CCN(c2ccc(F)c(F)c2)C1=O)NC1CCSC1=O` (stereo not given) the value was 678 s. Then `COc1ccc(OC)c(CNC(=O)C2CCCN(c3ccc(-c4ccccc4)nn3)C2)c1` (stereo not given), with 704 s. In turn, `O=C(NCc1ccc(F)cc1)c1nc(Cn2c(=O)oc3ccc(Cl)cc32)no1` came in with an RP-LC retention time of 942 s. For `CSc1ccc(CNC(=O)COc2cc(C)nc(N3CCCC3)n2)cc1` the value was 648 s; for `CN(C)C(=O)c1cc2c(s1)CCC(C(=O)NCCc1ccccc1)C2` (stereo not given), 710 s. Take `Cc1cc(C)c2c(N3CCOCC3)nc(C(=O)NCc3cccc(F)c3)nc2n1`: the RP-LC retention time was determined as 639 s. For `CN(C)CCn1c2c(c(SCC(=O)Nc3ccc(F)c(F)c3)nc1=O)CCC2`, the RP-LC retention time came out at 638 s. Then `CC(C)(C)c1cc(C(=O)NCc2cccs2)nc2ccnn12`, with 1110 s.

As to `CS(=O)(=O)N1CCCCC1C(=O)Nc1nnc(-c2ccco2)o1` (stereo not given), the RP-LC retention time was 641 s. The compound `CCOc1ccc(C2C(C(=O)N3CCCCC3)=C(C)NC3=C2C(=O)CCC3)cc1OC` (stereo not given) yielded an RP-LC retention time of 674 s. For `CCCn1cc(S(=O)(=O)Nc2ccc(F)c(C)c2)c2cccnc21` the value was 923 s; for `CCc1c(C(=O)O)nnn1Cc1c(F)cccc1Cl`, 742 s.

`O=C(CN1C(=O)c2ccccc2C1=O)Oc1ccc2nc(N3CCCCC3)sc2c1` gave an RP-LC retention time of 923 s. For `C=CCn1c(=O)c2ccccc2n(Cc2nc(-c3ccc(OC(C)C)cc3)no2)c1=O` the value was 1130 s. Then `CCOc1cc(=O)n2c(c1C(=O)Nc1ccc(OC)cc1OC)CCCC2`, with 706 s. For `C#CCOCC1CN(c2ccccc2)C(=O)O1` (stereo not given) the value was 833 s; for `CC(C)n1c(=O)c(NCc2ccc(OC(F)(F)F)cc2)nc2ccncc21`, 733 s; for `CCNC(=O)N1CCC2(CC1)c1nccn1-c1ccccc1CN2CC(C)C`, 623 s. `O=C(NCCc1c[nH]c2ccccc12)C1CCN(c2nc3ccccc3[nH]2)CC1` returned an RP-LC retention time of 615 s. In turn, `O=S(=O)(NCC1(c2ccc(F)cc2)CC1)c1ccc2c(c1)OCCO2` showed an RP-LC retention time of 918 s.

In the case of `Cc1cc(C)n(-c2ccnc(N3CCN(CC(=O)NC(C)C)CC3)n2)n1`, the RP-LC retention time amounted to 624 s.

Turning to `CCCCC(=O)Nc1nnc(SCc2nnc(-c3ccc4c(c3)OCO4)o2)s1`, the RP-LC retention time came out at 859 s.

For `CC1(C(=O)NC2CCCCC2)CN(S(=O)(=O)c2ccccc2)CC(=O)N1c1cccc(F)c1` (stereo not given), the RP-LC retention time was found to be 940 s. For `CCOc1ccc(C2c3[nH]c4ccccc4c3CCN2C(=O)COC)cc1` (stereo not given) the value was 981 s. For `COc1ccc(-c2noc(-c3cccn(CC(=O)Nc4cccc(SC)c4)c3=O)n2)cc1OC`, the RP-LC retention time turned out to be 853 s. For `Cc1ccn2cc(-c3ccc(NC(=O)c4ccc(C(C)(C)C)cc4)cc3)nc2n1` the value was 803 s. For `O=C(Nc1cccc(Br)c1)C1CCN(C(=O)C2Sc3ccccc3NC2=O)CC1` (stereo not given), the RP-LC retention time stood at 857 s.

Compound `O=c1ccc(-c2ccc3c(c2)OCO3)nn1CCc1nc(-c2ccc(Cl)cc2)no1` returned an RP-LC retention time of 1040 s.

The compound `CCCCNC(=O)C1CCCN(c2cc(=O)n(C)c(=O)n2CC)C1` (stereo not given) displayed an RP-LC retention time of 759 s.

Compound `CCn1c(=O)c(N2CCC(C(=O)NCCc3c[nH]c4ccc(C)cc34)CC2)nc2ccccc21` had an RP-LC retention time of 966 s. As for `Cc1oc(-c2cccs2)nc1CSc1ncnc2nc[nH]c12`, the RP-LC retention time stood at 714 s. In turn, `Cc1ccc(C)c(NC(=O)c2cc(C)n3nc(C)cc3n2)c1` gave an RP-LC retention time of 1090 s. Then `COc1ccccc1C(=O)N1CCCC1c1nc(-c2ccc(F)cc2F)no1` (stereo not given), with 1020 s; and `COc1cc(NC(=O)[C@@H]2COCC(=O)N2Cc2ccc(OC)cc2OC)cc(OC)c1`, with 702 s; and `COC(=O)c1nnn(CC(=O)NCc2ccc3c(c2)OCO3)c1C(=O)OC`, with 657 s. Then `CCNC(=O)C1CCN(c2nc3ccc(-c4cccnc4)nc3s2)CC1`, with 591 s; and `CN1CCCn2cc(S(=O)(=O)Nc3ccc(F)c(F)c3)cc2C1=O`, with 690 s. Then `CCCNC(=O)CCc1nc2ccccc2n(CC(=O)Nc2ccc(OC)cc2)c1=O`, with 746 s; and `O=C(NCCc1cccs1)C1CCCN(c2nc3ccsc3c(=O)n2Cc2ccc(F)cc2)C1` (stereo not given), with 936 s; and `Cc1ccc(Cn2c(C)c(CNCCc3ccco3)c(C(=O)O)c2C)cc1`, with 630 s.

In turn, `CCCN(C)c1nccn2c(=O)n(CC(=O)Nc3ccc(Br)cc3)nc12` yielded an RP-LC retention time of 736 s.

For `CCc1cc(=O)n(CC(=O)N2CCc3ccccc32)c(-c2ccccc2)n1`, the RP-LC retention time was determined as 1170 s. For `Cc1c(-c2ccnc(N3CCN(C)CC3)n2)cnc2nc(SCc3ccccc3)nn12`, the RP-LC retention time amounted to 672 s. Turning to `COCCN1C(=O)CCc2cc(NS(=O)(=O)c3cc(C)cc(C)c3)ccc21`, the RP-LC retention time came to 816 s. Then `CCc1nc2cccnc2n1CCN1CCN(C(=O)Nc2ccc(Br)cc2F)CC1`, with 624 s; and `Cc1cccc(-c2noc(-c3nnn(Cc4nc(-c5cccc(Cl)c5)oc4C)c3C)n2)c1`, with 1000 s. Then `COC(=O)c1c(NCc2ccc3c(c2)OCO3)c2cccc(Cl)c2[nH]c1=O`, with 788 s. Take `COc1ccc(/C=C/c2nc(Cn3c(C)nc4ccccc4c3=O)no2)cc1`: the RP-LC retention time stood at 871 s. Then `COc1ccc(CCc2nc(C3CC(=O)N(c4ccc(Cl)cc4)C3)no2)cc1` (stereo not given), with 1050 s; and `CC(=O)N1CCc2sc(C(=O)N3CCN(c4ccccn4)CC3)cc2C1`, with 575 s. For `COc1ccc(OC)c(NC(=O)NCC(c2cccnc2)c2c[nH]c3ccccc23)c1` (stereo not given) the value was 662 s.

`O=C(NCc1ccccc1Cl)c1ccc(=O)n(CCN2CCOCC2)c1` registered an RP-LC retention time of 609 s. For `O=C1C(=C2C=C(c3ccccc3)OC3=C2CCCC3)C(=O)c2ccccc21` the value was 1150 s.

The compound `CCn1c(=O)sc2cc(S(=O)(=O)N3CCC(C(=O)NCC4CCCO4)CC3)ccc21` (stereo not given) displayed an RP-LC retention time of 719 s.

`CNC(=O)C1CCN(Cc2cc3ccccc3n2Cc2ccc(C)cc2)CC1` showed an RP-LC retention time of 693 s. In turn, `Cn1nc(C(=O)N2CCC3(CC2)N=C(c2ccccc2)NO3)c2ccccc21` returned an RP-LC retention time of 809 s.

For the compound `CC(=O)c1cccc(NC(=O)c2ccc(Cl)s2)c1`, the RP-LC retention time worked out at 832 s.

For the compound `CCc1cccc(C)c1Nc1c(-c2ccc(OC)cc2)nc2nc(C)cc(C)n12`, the RP-LC retention time came to 781 s. For the compound `O=C(Cc1cccc(F)c1)NCC(=O)Nc1nc2ccccc2[nH]1`, the RP-LC retention time worked out at 623 s.

`CCOC(=O)c1cnc2c(OC)cccc2c1NCC1COc2ccccc2O1` (stereo not given): the RP-LC retention time stood at 782 s. Then `COC(=O)c1[nH]c(C)c(C(=O)C(C)N(C(=O)c2ccccc2)C2CCCCC2)c1C` (stereo not given), with 941 s. Then `CC1=C(c2ccc(C)cc2)S(=O)(=O)N=C1N1CCCN(C(=O)NC(C)C)CC1`, with 772 s. Consider `CCN(CC)C(=O)Cn1nc(-c2nc(-c3ccc(C)cc3)no2)c2ccccc21`, for which the RP-LC retention time was found to be 1150 s. The compound `CCOc1ccc(-c2csc(Cc3nc(-c4ccccc4)no3)n2)cc1` showed an RP-LC retention time of 1230 s. In the case of `COCC1(O)CCOC2(CCN(Cc3ccc(C)cn3)CC2)C1` (stereo not given), the RP-LC retention time turned out to be 568 s.

`CC(C)CN1C(=O)c2cccn2CC1C(=O)NC1CCCCC1` (stereo not given) displayed an RP-LC retention time of 797 s. For `Cc1ccc(-c2cc(C(=O)NCCN3CCN(C)CC3)n(C)c2)cc1` the value was 624 s; for `COc1ccc(S(=O)(=O)N2CCCC(C(=O)NCc3cccnc3)C2)cc1C` (stereo not given), 623 s; for `COCCC1CCN(C(=O)c2cc(F)ccc2F)CC1`, 749 s.
